From patent publication US20070259819A1, “Cosmetic Use of at Least Natural Tetrapeptide Ac-Ser-Asp-Lys-Pro or One of Its Analogs as a Skin Anti-Aging and Restructuring Agent” (Centre National De La Recherche Scientfique (CNRS), priority 2004, published 2007)
Entries after “also recorded” stand apart in the source; their conditions may differ. Peptide text beside a SMILES is read from it.

Key:
Format in all cases: cell-based
human skin explants = experiment: General morphology of human skin explants (histology); details: topical daily
Procedure: (§1) This study was conducted on thirty six human skin explants obtained from breast plastic surgery.
(§2) All the explants were maintained in a state of survival in a culture medium for eight days. AcSDKP at a concentration of 10^−5 M or 10^−8 M in physiological serum was applied to the explants by topical route every day for one week. On days 2, 4, 6 and 8, three explants from each batch (control, +AcSDKP 10^−5 M+ AcSDKP 10^−8 M) were removed and prepared for histological studies. General morphology was examined and an evaluation of the expression of basal keratin (CK14), undifferentiated keratin (CK19), collagen III, collagen IV, fibronectin and glycosaminoglycan without an acid group was performed.

[1] = tested on: glycosaminoglycan without an acid group; experiment: P.A.S. Alcian blue staining of glycosaminoglycans without acid groups in human skin explants
Procedure: as §1, §2
This effect, clearly visible at D6 and D8, is characterised by a PAS positive increase in the number of fibroblasts in the papillary dermis, especially in the band situated along the dermo-epidermal junction and by increased levels of GAGs in these fibroblasts.

collagen III = experiment: Immunolabelling of collagen III in human skin explants
Procedure: as §1, §2

collagen IV = experiment: Immunolabelling of collagen IV in human skin explants; details: D6 and D8
Procedure: as §1, §2

fibronectin = experiment: Immunolabelling of fibronectin in human skin explants
Procedure: as §1, §2

basal keratin (CK14) = experiment: Immunolabelling of keratin 14 in human skin explants
Procedure: as §1, §2

[2] = tested on: undifferentiated keratin (CK19); experiment: Immunolabelling of keratin 19 in human skin explants
Procedure: as §1, §2

[3] = topical daily, human skin explants, immunolabelling

SMILES: CC(=O)N[C@@H](CO)C(=O)N[C@@H](CC(=O)O)C(=O)N[C@@H](CCCCN)C(=O)N1CCC[C@H]1C(=O)O [AcSDKP, CH3CO-Ser-Asp-Lys-Pro] (Ac-SDKP-OH)
- General morphology: epidermal structure (human skin explants; 10^-5 M and 10^-8 M, human skin explants): triggers stimulation of the epidermal structure as of D6 of treatment
- Increase in epidermal thickness (human skin explants; 10^-5 M compared with 10^-8 M): increase in epidermal thickness is greater
- Glycosaminoglycan (GAGs) levels ([1]; 10^-5 M and 10^-8 M, clearly visible at D6 and D8): significant increase in the levels of these compounds in the skin
- Glycosaminoglycan (GAGs) expression ([1]; 10^-5 M compared with 10^-8 M): higher level of activity
- Collagen III expression (collagen III; 10^-5 M, D8): very clear overexpression of collagen III in the papillary and reticular dermis
- Collagen III levels (collagen III; 10^-5 M, six days of treatment): very marked increase in collagen III levels in the papillary dermis along the dermo-epidermal junction
- Collagen III level (collagen III; 10^-8 M, D8): level of collagen III increases along the dermo-epidermal junction and forms a thicker collagen band
- Collagen III expression along the dermo-epidermal junction (collagen III; 10^-8 M, six days of treatment, compared with 10^-5 M): less pronounced
- Collagen IV levels in the basal membrane (collagen IV; 10^-5 M and 10^-8 M): less pronounced than that for type III collagen
- Increase in collagen IV levels (collagen IV; 10^-5 M compared with 10^-8 M): higher
- Fibronectin expression (fibronectin; 10^-5 M compared with 10^-8 M): greater activity
- Fibronectin expression (fibronectin; [3]): fibronectin network is denser and has thicker fibres; also recorded: triggers overexpression of this protein along a dermo-epidermal junction as well as in the papillary and reticular dermis
- Keratin 14 (CK14) restructuring effect (basal keratin (CK14); 10^-5 M compared with 10^-8 M): restructuring effect is greater
- Keratin 14 (CK14) expression (basal keratin (CK14); [3]): gradual increase in the levels of this protein in the basal and superbasal position as of D4 of treatment
- Keratin 19 (CK19) expression ([2]; 10^-5 M and 10^-8 M, topical daily, immunolabelling): overexpression of the skin's dermal attachments as of D6 of treatment
- Keratin 19 (CK19) expression ([2]; 10^-5 M compared with 10^-8 M): less marked effect
